Test results reported in ChEMBL document CHEMBL4339189, “Dissymmetric pyridyl-substituted 3,5-bis(arylidene)-4-piperidones as anti-hepatoma agents by inhibiting NF-κB pathway activation” (Eur J Med Chem, 2019).
Calls of active or inactive are those of the source. The rule behind the calls is not given here.

Experiments:
Mus musculus = experiment: Antiinflammatory activity in human HepG2 cells xenografted Balb/c nude mouse assessed as reduction in TNFalpha protein expression at 10 mg/kg, ip administered every 2 days for 20 days and measured every 2 days by immunohistochemistry; type: functional, organism-based
QGY-7703 = experiment: Cytotoxicity against human QGY7703 cells assessed as reduction in cell viability incubated for 24 hrs by MTT assay; type: functional, cell-based; conditions: for IC50: QGY-7703, 24 h
HepG2 [1] = experiment: Antitumor activity against human HepG2 cells xenografted in Balb/c nude mouse assessed as tumor volume level at 10 mg/kg, ip administered every 2 days for 20 days and measured every 2 days; type: functional
[2] = Cytotoxicity against human HHL5 cells assessed as reduction in cell viability incubated for 24 hrs by MTT assay; type: cell-based; conditions: HHL-5, 24 h
HepG2 [3] = experiment: Cytotoxicity against human HepG2 cells assessed as reduction in cell viability incubated for 24 hrs by MTT assay; type: functional, cell-based; conditions: for IC50: HepG2, 24 h
HepG2 [4] = experiment: Antitumor activity against human HepG2 cells xenografted in Balb/c nude mouse assessed as induction of wrinkled abnormalities on cell morphology at 10 mg/kg, ip administered every 2 days for 20 days and measured every 2 days by H and E staining based assay; type: functional, organism-based
HepG2 [5] = experiment: Antitumor activity against human HepG2 cells xenografted in Balb/c nude mouse assessed as induction of incomplete cells at 10 mg/kg, ip administered every 2 days for 20 days and measured every 2 days by H and E staining based assay; type: functional, organism-based
SMMC-7721 = experiment: Cytotoxicity against human SMMC7721 cells assessed as reduction in cell viability incubated for 24 hrs by MTT assay; type: functional, cell-based; conditions: for IC50: SMMC-7721, 24 h
HepG2 [6] = experiment: Induction of apoptosis in human HepG2 cells xenografted in Balb/c nude mouse assessed as reduction in Bcl-2 protein expression at 10 mg/kg, ip administered every 2 days for 20 days and measured every 2 days by immunohistochemistry; type: functional, organism-based
RAW264.7 [7] = experiment: Antiinflammatory activity in mouse RAW264.7 cells assessed as inhibition of LPS-stimulated IL-6 production 6.0 uM preincubated for 2 hrs followed by LPS stimulaton measured after 22 hrs by ELISA relative to control; type: functional
L02 = experiment: Cytotoxicity against human LO2 cells assessed as reduction in cell viability incubated for 24 hrs by MTT assay; type: cell-based; conditions: L02, 24 h
RAW264.7 [8] = experiment: Antiinflammatory activity in mouse RAW264.7 cells assessed as inhibition of LPS-stimulated TNF-alpha production at 6.0 uM preincubated for 2 hrs followed by LPS stimulaton measured after 22 hrs by ELISA relative to control; type: functional
RAW264.7 [9] = experiment: Cytotoxicity against mouse RAW264.7 cells assessed as reduction in cell viability at 6.0 uM incubated for 24 hrs by MTT assay; type: cell-based; conditions: raw264.7, 24 h

## COc1cccc2c1C(=O)c1c(O)c3c(c(O)c1C2=O)C[C@@](O)(C(=O)CO)C[C@@H]3O[C@H]1C[C@H](N)[C@H](O)[C@H](C)O1 [DOXORUBICIN]
Mus musculus
  Activity: Active
QGY-7703
  Activity: Dose-dependent effect
  IC50: 1.37 µM
HepG2 [1]
  Activity: <200 mm3
[2]
  IC50: 12.2 µM
HepG2 [3]
  Activity: Dose-dependent effect
HepG2 [4]
  Activity: Active
HepG2 [5]
  Activity: Active
SMMC-7721
  Activity: Dose-dependent effect
  IC50: 2.75 µM
HepG2 [6]
  Activity: Active

## Cc1ccc(S(=O)(=O)N2C/C(=C\c3cccnc3)C(=O)/C(=C/c3ccccc3C(F)(F)F)C2)cc1
RAW264.7 [7]
  inhibition: Active
QGY-7703
  IC50: 6.17 µM
L02
  IC50: 12.3 µM
[2]
  IC50: 11.1 µM
HepG2 [3]
  IC50: 2.93 µM
RAW264.7 [8]
  inhibition: Active
RAW264.7 [9]
  Activity: Non-Toxic
SMMC-7721
  IC50: 6.7 µM

## O=C1/C(=C/c2cccnc2)CN(S(=O)(=O)c2ccc(Br)cc2)C/C1=C\c1ccccc1C(F)(F)F
RAW264.7 [7]
  inhibition: Active
QGY-7703
  IC50: 5.51 µM
L02
  IC50: 13.3 µM
[2]
  IC50: 15.5 µM
HepG2 [3]
  IC50: 2.73 µM
RAW264.7 [8]
  inhibition: Active
RAW264.7 [9]
  Activity: Non-Toxic
SMMC-7721
  IC50: 5.76 µM

## O=C1/C(=C/c2ccncc2)CNC/C1=C\c1ccccc1C(F)(F)F
RAW264.7 [7]
  inhibition: Active
QGY-7703
  IC50: 4.9 µM
L02
  IC50: 13.4 µM
[2]
  IC50: 9.87 µM
HepG2 [3]
  IC50: 6.13 µM
RAW264.7 [8]
  inhibition: Active
RAW264.7 [9]
  Activity: Non-Toxic
SMMC-7721
  IC50: 4.5 µM
